Data published in patent publication US20240002391A1, “4-ALKOXYPYRROLO[2,1-F][1,2,4]TRIAZINES AND PREPARATION AND USES THEREOF” (BioSplice Therapeutics, Inc., priority 2022, published 2024).

What follows are molecules tested against recombinant DYRK1A kinase (Homo sapiens (Human), UniProt Q13627) (assay: DYRK1A kinase assay (Ser/Thr 18 peptide Z-lyte FRET)). Conditions: DYRK1A kinase activity, Z-lyte Ser/Thr 18 peptide, 15 μM ATP; method text calls the value IC50; read-out: EC50 (the source's name).
Format: biochemical
How it was run: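 Z-lyte FRET: recombinant DYRK1A 0.25 μg/mL, ATP 15 μM, Ser/Thr 18 peptide 4 μM, with compound (11-point 1:3, 10 μM top) 1 h at room temperature, then development reagent 1 h. Coumarin/fluorescein emission ratio converted to % phosphorylation; IC50 by non-linear regression, duplicates.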

For `COc1nc(N[C@@H]2CCN(C)C[C@@H]2F)nn2ccc(-c3cnc4nccn4c3)c12` [Compound 267, N-((3S,4R)-3-Fluoro-1-methylpiperidin-4-yl)-5-(imidazo[1,2-a]pyrimidin-6-yl)-4-methoxypyrrolo[2,1-f][1,2,4]triazin-2-amine], which IC50 is on record?
Its IC50 is 4.8 nM.

With `COc1nc(N[C@H]2CCN(C)C[C@H]2F)nn2ccc(-c3cnc4nccn4c3)c12` [Compound 268, N-((3R,4S)-3-Fluoro-1-methylpiperidin-4-yl)-5-(imidazo[1,2-a]pyrimidin-6-yl)-4-methoxypyrrolo[2,1-f][1,2,4]triazin-2-amine] as the molecule, how does the IC50 read?
Its IC50 is 5 nM.

Which IC50 does the source give for `COc1nc(N[C@@H]2CCN(C3COC3)C[C@@H]2F)nn2ccc(-c3cnc4nccn4c3)c12` [Compound 269, N-((3S,4R)-3-Fluoro-1-(oxetan-3-yl)piperidin-4-yl)-5-(imidazo[1,2-a]pyrimidin-6-yl)-4-methoxypyrrolo[2,1-f][1,2,4]triazin-2-amine] here?
The IC50 was 2.3 nM.

`COc1nc(N[C@H]2CCN(C3COC3)C[C@H]2F)nn2ccc(-c3cnc4nccn4c3)c12` [Compound 270, N-((3R,4S)-3-Fluoro-1-(oxetan-3-yl)piperidin-4-yl)-5-(imidazo[1,2-a]pyrimidin-6-yl)-4-methoxypyrrolo[2,1-f][1,2,4]triazin-2-amine] was tested. Which IC50 did it give?
The IC50 was 5.1 nM.

How did the IC50 turn out when `COc1nc(NC2CCOCC2)nn2ccc(-c3cnc4nccn4c3)c12` [Compound 271, 5-(Imidazo[1,2-a]pyrimidin-6-yl)-4-methoxy-N-(tetrahydro-2H-pyran-4-yl)pyrrolo[2,1-f][1,2,4]triazin-2-amine] was run?
The IC50 was 3.8 nM.

With `COc1nc(NC2CCC3(CC2)CN(C(C)=O)C3)nn2ccc(-c3cnc4nccn4c3)c12` [Compound 273, 1-(7-((5-(Imidazo[1,2-a]pyrimidin-6-yl)-4-methoxypyrrolo[2,1-f][1,2,4]triazin-2-yl)amino)-2-azaspiro[3.5]nonan-2-yl)ethan-1-one] as the molecule, how does the IC50 read?
Its IC50 is 1.8 nM.

With `COc1nc(N[C@H]2CC[C@]3(CCO3)CC2)nn2ccc(-c3cnc4nccn4c3)c12` [Compound 274, 5-(Imidazo[1,2-a]pyrimidin-6-yl)-4-methoxy-N-((4s,7s)-1-oxaspiro[3.5]nonan-7-yl)pyrrolo[2,1-f][1,2,4]triazin-2-amine] as the molecule, how does the IC50 read?
The IC50 was 1 nM.

For `COc1nc(N[C@H]2CC[C@@]3(CCO3)CC2)nn2ccc(-c3cnc4nccn4c3)c12` [Compound 275, 5-(Imidazo[1,2-a]pyrimidin-6-yl)-4-methoxy-N-((4r,7r)-1-oxaspiro[3.5]nonan-7-yl)pyrrolo[2,1-f][1,2,4]triazin-2-amine], which IC50 is on record?
The IC50 was 3.4 nM.

`COc1nc(N[C@H]2C[C@@](C)(O)C2)nn2ccc(-c3cc4ncccc4[nH]3)c12` [Compound 277, cis-3-((4-Methoxy-5-(1H-pyrrolo[3,2-b]pyridin-2-yl)pyrrolo[2,1-f][1,2,4]triazin-2-yl)amino)-1-methylcyclobutan-1-ol] was tested. Which IC50 did it give?
Its IC50 is 63.3 nM.

With `COc1nc(N[C@H]2CC[C@](C)(O)CC2)nn2ccc(-c3cc4ncccc4[nH]3)c12` [Compound 280, trans-4-((4-Methoxy-5-(1H-pyrrolo[3,2-b]pyridin-2-yl)pyrrolo[2,1-f][1,2,4]triazin-2-yl)amino)-1-methylcyclohexan-1-ol] as the molecule, how does the IC50 read?
The IC50 was 33.4 nM.

With `COc1nc(N[C@H]2C[C@@](C)(O)C2)nn2ccc(-c3cc4cnccc4[nH]3)c12` [Compound 281, cis-3-((4-Methoxy-5-(1H-pyrrolo[3,2-c]pyridin-2-yl)pyrrolo[2,1-f][1,2,4]triazin-2-yl)amino)-1-methylcyclobutan-1-ol] as the molecule, how does the IC50 read?
The IC50 was 6.6 nM.

`COc1nc(N[C@H]2CC[C@](C)(O)CC2)nn2ccc(-c3cc4cnccc4[nH]3)c12` [Compound 282, trans-4-((4-Methoxy-5-(1H-pyrrolo[3,2-c]pyridin-2-yl)pyrrolo[2,1-f][1,2,4]triazin-2-yl)amino)-1-methylcyclohexan-1-ol] was tested. Which IC50 did it give?
The IC50 was 13.6 nM.

`COc1nc(N[C@H]2C[C@@](C)(O)C2)nn2ccc(-c3cc4ccncc4[nH]3)c12` [Compound 283, cis-3-((4-Methoxy-5-(1H-pyrrolo[2,3-c]pyridin-2-yl)pyrrolo[2,1-f][1,2,4]triazin-2-yl)amino)-1-methylcyclobutan-1-ol] was tested. Which IC50 did it give?
Its IC50 is 110 nM.

For `COc1nc(N[C@H]2CC[C@](C)(O)CC2)nn2ccc(-c3cc4ccncc4[nH]3)c12` [Compound 284, trans-4-((4-Methoxy-5-(1H-pyrrolo[2,3-c]pyridin-2-yl)pyrrolo[2,1-f][1,2,4]triazin-2-yl)amino)-1-methylcyclohexan-1-ol], which IC50 is on record?
The IC50 was 235 nM.

`COc1nc(N[C@H]2C[C@H](C(C)(C)O)C2)nn2ccc(-c3ccc4ncccc4c3)c12` [Compound 287, 2-(trans-3-((4-methoxy-5-(quinolin-6-yl)pyrrolo[2,1-f][1,2,4]triazin-2-yl)amino)cyclobutyl)propan-2-ol] was tested. Which IC50 did it give?
The IC50 was 2.2 nM.

`COc1nc(N[C@H]2C[C@@](C)(NC(C)=O)C2)nn2ccc(-c3ccc4ncccc4c3)c12` [Compound 288, N-(cis-3-((4-Methoxy-5-(quinolin-6-yl)pyrrolo[2,1-f][1,2,4]triazin-2-yl)amino)-1-methylcyclobutyl)acetamide] was tested. Which IC50 did it give?
Its IC50 is 2.6 nM.

For `COc1nc(N[C@H]2C[C@](C)(C(=O)N(C)C)C2)nn2ccc(-c3ccc4ncccc4c3)c12` [Compound 290, trans-3-((4-Methoxy-5-(quinolin-6-yl)pyrrolo[2,1-f][1,2,4]triazin-2-yl)amino)-N,N,1-trimethylcyclobutane-1-carboxamide], which IC50 is on record?
Its IC50 is 1.8 nM.

`COc1nc(NC2CCN(CC(F)F)CC2)nn2ccc(-c3ccc4ncccc4c3)c12` [Compound 304, N-(1-(2,2-Difluoroethyl)piperidin-4-yl)-4-methoxy-5-(quinolin-6-yl)pyrrolo[2,1-f][1,2,4]triazin-2-amine] was tested. Which IC50 did it give?
The IC50 was 14.3 nM.

`COc1nc(NC2CCN(CC(F)(F)F)CC2)nn2ccc(-c3ccc4ncccc4c3)c12` [Compound 305, 4-Methoxy-5-(quinolin-6-yl)-N-(1-(2,2,2-trifluoroethyl)piperidin-4-yl)pyrrolo[2,1-f][1,2,4]triazin-2-amine] was tested. Which IC50 did it give?
Its IC50 is 80.7 nM.

`COc1nc(NC2CCN(C3CC(F)(F)C3)CC2)nn2ccc(-c3ccc4ncccc4c3)c12` [Compound 306, N-(1-(3,3-Difluorocyclobutyl)piperidin-4-yl)-4-methoxy-5-(quinolin-6-yl)pyrrolo[2,1-f][1,2,4]triazin-2-amine] was tested. Which IC50 did it give?
The IC50 was 28.2 nM.

`COc1nc(N[C@H]2CCN(CCF)C[C@H]2F)nn2ccc(-c3ccc4ncccc4c3)c12` [Compound 314, N-((3R,4S)-3-Fluoro-1-(2-fluoroethyl)piperidin-4-yl)-4-methoxy-5-(quinolin-6-yl)pyrrolo[2,1-f][1,2,4]triazin-2-amine] was tested. Which IC50 did it give?
The IC50 was 4.1 nM.

For `COc1nc(N[C@@H]2CCN(C)CC2(F)F)nn2ccc(-c3ccc4ncccc4c3)c12` [Compound 319, (R)—N-(3,3-Difluoro-1-methylpiperidin-4-yl)-4-methoxy-5-(quinolin-6-yl)pyrrolo[2,1-f][1,2,4]triazin-2-amine], which IC50 is on record?
The IC50 was 2.2 nM.

Which IC50 does the source give for `COc1nc(N[C@H]2CCN(C)CC2(F)F)nn2ccc(-c3ccc4ncccc4c3)c12` [Compound 320, (S)—N-(3,3-Difluoro-1-methylpiperidin-4-yl)-4-methoxy-5-(quinolin-6-yl)pyrrolo[2,1-f][1,2,4]triazin-2-amine] here?
The IC50 was 8.2 nM.

How did the IC50 turn out when `COc1nc(N[C@@H]2CCN(C3COC3)CC2(F)F)nn2ccc(-c3ccc4ncccc4c3)c12` [Compound 321, (R)—N-(3,3-Difluoro-1-(oxetan-3-yl)piperidin-4-yl)-4-methoxy-5-(quinolin-6-yl)pyrrolo[2,1-f][1,2,4]triazin-2-amine] was run?
Its IC50 is 2.1 nM.
